The values below come from paper PMC11992128, “Inhibition of Rho GEFs attenuates pulmonary fibrosis through suppressing myofibroblast activation and reprogramming profibrotic macrophages” (Cell Death & Disease, 2025).

The target of experiment [1] is T1, DH/PH domain of LARG (Leukemia-associated RhoGEF); ARHGEF12(765-1138aa) (Homo sapiens, UniProt Q9NZN5).
T1 construct: DH/PH domain; GST-ARHGEF12(765-1138aa) by lentivirus in NIH/3T3 for the cell tests
T1 sequence (Q9NZN5 765-1138): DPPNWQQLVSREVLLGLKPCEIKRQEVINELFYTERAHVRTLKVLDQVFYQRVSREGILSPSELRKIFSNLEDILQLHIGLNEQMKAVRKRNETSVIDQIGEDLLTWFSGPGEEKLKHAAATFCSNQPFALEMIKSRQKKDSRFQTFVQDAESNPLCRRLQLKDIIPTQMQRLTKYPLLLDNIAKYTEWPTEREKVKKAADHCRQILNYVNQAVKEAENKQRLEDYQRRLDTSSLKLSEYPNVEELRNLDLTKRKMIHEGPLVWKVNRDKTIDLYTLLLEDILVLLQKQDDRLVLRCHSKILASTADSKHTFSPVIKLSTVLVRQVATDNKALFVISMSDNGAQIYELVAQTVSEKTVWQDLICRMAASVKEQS
Kind of experiment: CETSA, NIH/3T3 expressing the GST-tagged domain, Western blot. It counts as cell-based. To be noted: 75 μM GL-V9, 3 h. (In western blotting, separated proteins are transferred to a membrane and probed.)

For experiment [2], the target named is T1, DH/PH domain of LARG (Leukemia-associated RhoGEF); ARHGEF12(765-1138aa). Kind of experiment: surface plasmon resonance (Biacore S200, CM5 chip, immobilised protein). It counts as binding.

As to `COc1c(OCCCCN2CCCC2)cc(O)c2c(=O)cc(-c3ccccc3)oc12` [GL-V9, 5-hydroxy-8-methoxy-2-phenyl-7-(4-(pyrrolidine-1-yl)butoxy) 4H-chromen-4-one], the thermal stability entry in experiment [1] is reported as “GL-V9 significantly enhanced the thermal stability of the wild-type DH/PH domain”. The molecule also came in with a Kd in experiment [2] of 11.8 µM.

By Kd is commonly meant the constant that tells how readily two partners part at equilibrium. Low readings indicate a tighter complex, high ones a looser complex.
